Test results reported in patent US10105357B2, “Indication of antibiotic drugs for preparation of cancer inhibition pharmaceutical composition” (LAUNX BIOMEDICAL CO., LTD., priority 2014, dated 2018).
Read-outs that look alike come from different tables or passages of the source.

Tests used:
NIH: OVCAR-3 = experiment: Cell viability analysis, ovarian cancer NIH: OVCAR-3; assay type: cell-based, human
[1] = tested on: LoVo (Colorectal Adenocarcinoma); experiment: Cell viability analysis, colon cancer LoVo; assay type: cell-based, human
[2] = tested on: AGS (Gastric Adenocarcinoma); experiment: Cell viability analysis, gastric cancer AGS; assay type: cell-based, human
[3] = tested on: A549 (Lung Adenocarcinoma); experiment: Cell viability analysis, lung cancer A549; assay type: cell-based, human
[4] = tested on: HeLa (Cervix Adenocarcinoma); experiment: Cell viability analysis, cervical cancer HeLa; assay type: cell-based, human
[5] = tested on: 786-O (Renal adenocarcinoma); experiment: Cell viability analysis, renal cancer 786-O; assay type: cell-based, human
[6] = tested on: HepG2 (Hepatocellular Carcinoma); experiment: Cell viability analysis, hepatic cancer HepG2; assay type: cell-based, human
[7] = tested on: HI650 (Lung Adenocarcinoma); experiment: Cell viability analysis, lung cancer HI650; assay type: cell-based, human
[8] = tested on: MKN-45 (Gastric Adenocarcinoma); experiment: Cell viability analysis, gastric cancer MKN-45; assay type: cell-based, human
[9] = tested on: MDA-MB-231 (Mammary Gland, Adenocarcinoma); experiment: Cell viability analysis, breast cancer MDA-MB-231; assay type: cell-based, human
AsPC-1 = experiment: Cell viability analysis, pancreatic cancer AsPC-1; assay type: cell-based, human
[10] = tested on: Hep3B (hepatocellular carcinoma); experiment: Cell viability analysis, hepatic cancer Hep3B; assay type: cell-based, human
[11] = tested on: A375 (Amelanotic Melanoma); experiment: Cell viability analysis, skin cancer A375; assay type: cell-based, human
[12] = tested on: C-33A (Cervical carcinoma); experiment: Cell viability analysis, cervical cancer C-33A; assay type: cell-based, human
U-2OS = experiment: Cell viability analysis, osteosarcoma U-2OS; assay type: cell-based, human
[13] = tested on: HCT116 (p53+) (Colorectal Carcinoma)
[14] = tested on: PC3 (p53−) (Prostate Adenocarcinoma); experiment: Cell viability analysis, prostate cancer PC3; assay type: cell-based, human
[15] = tested on: TSGH-8301 (Urinary Bladder Carcinoma); experiment: Cell viability analysis, bladder cancer TSGH-8301; assay type: cell-based, human
[16] = tested on: SAS (Tongue squamous cell carcinoma); experiment: Cell viability analysis, tongue cancer SAS; assay type: cell-based, human
cancer cell lines = experiment: Cell viability analysis (WST-1) on cancer cell lines; assay type: cell-based, human; conditions: drug 10 μM, 72 hours, WST-1; Table 3
BxPC-3 = experiment: Cell viability analysis, pancreatic cancer BxPC-3; assay type: cell-based, human; conditions: BxPC-3; repeated experiment
[17] = tested on: MCF7 (Mammary Gland, Adenocarcinoma); experiment: Cell viability analysis, breast cancer MCF7; assay type: cell-based, human; conditions: drug 10 μM, 72 hours, WST-1, OD450 nm
[18] = tested on: BCC (basal cell carcinoma); experiment: Cell viability analysis, skin cancer BCC; assay type: cell-based, human; conditions: BCC; repeated experiment
[19] = drug 10 μM, 72 hours, WST-1, OD450 nm

Compound: N#C[C@@H]1C[C@@H]2C[C@H]2N1C(=O)[C@@H](N)C12CC3CC(CC(O)(C3)C1)C2 [Saxagliptin (BMS-477118, Onglyza)]
- The results of antibiotic drug inhibiting cancer cell lines (cell viability analysis), NIH-OVCAR-3 (NIH: OVCAR-3): 114.2
- The results of antibiotic drug inhibiting cancer cell lines (cell viability analysis), LoVo [1]: 82.99
- The results of antibiotic drug inhibiting cancer cell lines (cell viability analysis), AGS [2]: 121.3
- The results of antibiotic drug inhibiting cancer cell lines (cell viability analysis), A549 [3]: 98.68
- The results of antibiotic drug inhibiting cancer cell lines (cell viability analysis), HeLa [4]: 114.7
- The results of antibiotic drug inhibiting cancer cell lines (cell viability analysis), 786-O [5]: 98.33
- The results of antibiotic drug inhibiting cancer cell lines (cell viability analysis), HepG2 [6]: 118
- The results of antibiotic drug inhibiting cancer cell lines (cell viability analysis), H1650 [7]: 101.5
- The results of antibiotic drug inhibiting cancer cell lines (cell viability analysis), MKN-45 [8]: 117.7
- The results of antibiotic drug inhibiting cancer cell lines (cell viability analysis), MDA-MB231 [9]: 102
- The results of antibiotic drug inhibiting cancer cell lines (cell viability analysis), AsPC-1 (AsPC-1): 75.97
- The results of antibiotic drug inhibiting cancer cell lines (cell viability analysis), Hep3B [10]: 122.9
- The results of antibiotic drug inhibiting cancer cell lines (cell viability analysis), A375 [11]: 111.4
- The results of antibiotic drug inhibiting cancer cell lines (cell viability analysis), C-33A [12]: 104.4
- The results of antibiotic drug inhibiting cancer cell lines (cell viability analysis), U2OS (U-2OS): 62.9
- viability [13]: 107%
- The results of antibiotic drug inhibiting cancer cell lines (cell viability analysis), PC-3 [14]: 112
- The results of antibiotic drug inhibiting cancer cell lines (cell viability analysis), TSGH-8301 [15]: 119.6
- The results of antibiotic drug inhibiting cancer cell lines (cell viability analysis), SAS [16]: 62.71

Compound: CC1(C)S[C@@H]2[C@H](NC(=O)[C@H](N)c3ccc(O)cc3)C(=O)N2[C@H]1C(=O)[O-].[Na+] [Amoxicillin sodium (Amox), Amoxicillin sodium]
- cell viability (survival rate), LoVo [1, 19]: 69.1
- The results of antibiotic drug inhibiting cancer cell lines (cell viability analysis), AGS ([2]; AGS, repeated experiment): 128.2
- cell viability (survival rate), AGS [2, 19]: 51.2
- inhibition effect on different cancer cell lines (cancer cell lines): significant inhibition effect
- The results of antibiotic drug inhibiting cancer cell lines (cell viability analysis), BxPC-3 (BxPC-3): 71.08
- cell viability (survival rate), A549 [3, 19]: 60.6
- The results of antibiotic drug inhibiting cancer cell lines (cell viability analysis), HeLa ([4]; HeLa, repeated experiment): 112.6
- cell viability (survival rate), HeLa [4, 19]: 81.0
- The results of antibiotic drug inhibiting cancer cell lines (cell viability analysis), HepG2 ([6]; HepG2, repeated experiment): 124.5
- cell viability (survival rate), HepG2 [6, 19]: 80.8
- The results of antibiotic drug inhibiting cancer cell lines (cell viability analysis), H1650 ([7]; H1650, repeated experiment): 87.81
- cell viability (survival rate), H1650 [7, 19]: 43.3
- The results of antibiotic drug inhibiting cancer cell lines (cell viability analysis), MKN-45 ([8]; MKN-45, repeated experiment): 110.7
- cell viability (survival rate), MKN-45 [8, 19]: 63.2
- The results of antibiotic drug inhibiting cancer cell lines (cell viability analysis), AsPC-1 (AsPC-1; AsPC-1, repeated experiment): 88.13
- cell viability (survival rate), MCF7 [17]: 60.4
- The results of antibiotic drug inhibiting cancer cell lines (cell viability analysis), BCC [18]: 115.1
- The results of antibiotic drug inhibiting cancer cell lines (cell viability analysis), A375 ([11]; A375, repeated experiment): 115.9
- cell viability (survival rate), A375 [11, 19]: 78.5
- The results of antibiotic drug inhibiting cancer cell lines (cell viability analysis), U2OS (U-2OS; U2OS, repeated experiment): 65.21
- viability [13]: 112%
- The results of antibiotic drug inhibiting cancer cell lines (cell viability analysis), PC-3 ([14]; PC-3, repeated experiment): 127.2
- cell viability (survival rate), PC3 [14, 19]: 74.8
- The results of antibiotic drug inhibiting cancer cell lines (cell viability analysis), TSGH-8301 ([15]; TSGH-8301, repeated experiment): 129.6
- cell viability (survival rate), TSGH [15, 19]: 45.4
- The results of antibiotic drug inhibiting cancer cell lines (cell viability analysis), SAS ([16]; SAS, repeated experiment): 66.94
